The source of these data is patent US11596648B2, “Emollient topical disinfectants” (priority 2016, dated 2023).

Where two headings read alike, the source gives them in different places. Where only a bound is given, the exact number is not on record here.

Data set [1] is described as follows: Potassium iodide starch paper coloration versus time, vapor pressure of molecular iodine (Example 5). As to conditions: cyclodextrin 50 mM; for reduction in vapor pressure of molecular iodine in the acetate buffer (ranking): 0.1M acetate buffer pH 4.5; for ability to reduce the vapor pressure of molecular iodine in an aqueous environment (conclusion): acetate buffer. From the text:
Alpha cyclodextrin (cat. number C4642, Sigma Life Sciences, Lot 2X SLBK4630V, CAS 10016-20-3), beta cyclodextrin (cat. number C4767, Sigma Life Sciences, Lot MKBV2085V, CAS 7585-39-9), gamma cyclodextrin (cat. number C4892, Sigma Life Sciences, Lot SLBL4156V, CAS 17465-86-0), methyl beta cyclodextri, (cat. number C4555, Sigma Life Sciences, Lot WXBC0745V, CAS 128446-36-6) and 2-hydroxypropyl-beta-cyclodextrin (cat. number H107, Sigma Life Sciences, Lot WXBC0083V, CAS 128446-35-5) were weighed into vials.
Aliquots of saturated molecular iodine in either propylene glycol or 0.1M acetate buffer (pH 4.5) were added to the vials to yield a final cyclodextrin concentration of 50 mM. The samples were lightly vortexed to dissolve the cyclodextrins. Control vials were prepared consisting of saturated iodine in either propylene glycol or 0.1M acetate buffer pH 4.5.
Analytical potassium iodide starch paper (Fluka #37215, Lot SZBF1310V) was cut into circle and placed inside the screw-top lid of the vials in a manner that held the paper in place once the lid was screwed onto the vial.
Provided in FIGS. 2A-2L are pictures of the starch paper taken at different time points to document the color of the starch paper versus time of exposure to the atmosphere inside of the vial. The operating assumption was that the color of the starch paper would be proportional to the time of exposure to the concentration of molecular iodine in the atmosphere inside of the vial.
The concentration of molecular iodine in the atmosphere inside of the vial is proportional to the vapor pressure of dissolved molecular iodine in the liquid phase.

Data set [2] is described as follows: Iodine vapor detection with iodine sensitive paper disc in vial lid (Example 4). As to conditions: acetate buffer; cyclodextrin 50 mM. Here is the method: Solutions of these cyclodextrins were prepared in acetate buffer or propylene glycol, both containing molecular iodine as follows. Cyclodextrins were weighed and added to vials. Saturated solutions of molecular iodine (Alfa Aesar 14248 Lot 104Z003) were then prepared in either: (a) […] acetate buffer (pH 4.5); or (b) propylene glycol.
Aliquots of each solution of the different cyclodextrins were added to vials to a final cyclodextrin concentration of 50 mM. […] The screw-top lid of each vial was fitted with an iodine sensitive paper disc (Fluka #37215, Lot SZBF1310V) that fit tightly in the lid so the paper was exposed to the atmosphere in the vial which would allow the paper to react with molecular iodine that was in the vapor phase.
At time points of: one (1) hour; six (6) hours; and twenty-four (24) hours, the color of the indicator paper on the inside of the screw-top lids were examined and photographed.

A short description of data set [3]: Viscosity with Brookfield DV2T viscometer (Example 7). Format: physicochemical. As to conditions: for viscosity: extrapolated to zero shear. On the procedure:
Viscosity was measured using a Brookfield DV2T viscometer which allowed for the precise control of the temperature at which the viscosity was measured. The Brookfield DV2T was programmed to measured viscosity at different shear rates by systematically ramping the spindle (CP-40 or CP-52) speed up and then down as shown in FIG. 4A for propylene glycol at 25° C.
The viscosity values were fitted to a curve and extrapolated to the zero shear value to arrive at a final estimate for viscosity.
One series of samples was prepared without molecular iodine and a second series was prepared that contained 800 ppm molecular iodine. The viscosity of these samples was measured as described above using an up-down rate ramp program. The results were fitted to an Ostwald model, i.e. stress versus shear rate curve fit, and the consistency constant was reported as the viscosity.

The conditions of data set [4]: rats, 1 hour; cited from earlier work.
For data set [5] the following is noted: cited from earlier work.
The conditions of data set [6]: cited from earlier work. This is another data set of the same source.

One may read the viscosity as the internal friction of a fluid under shear.

Regarding “hydroxypropyl-β-cyclodextrin [hyroxypropyl-β-cyclodextrin]”, in data set [1], the “reduction in vapor pressure of molecular iodine in the acetate buffer (ranking)” value is listed as “greatest reduction in vapor pressure” and the “ability to reduce the vapor pressure of molecular iodine in an aqueous environment (conclusion)” value is recorded as “most effective”. In data set [2], the “color of iodine indicator paper / iodine vapor at 24 hours” value is given as “clearly detected” and the “effect on vapor pressure of molecular iodine in an aqueous environment” value is “reduces the vapor pressure of molecular iodine”.

Take methyl-β-cyclodextrin: in data set [1], the “reduction in vapor pressure of molecular iodine in the acetate buffer (ranking)” value is “greatest reduction in vapor pressure” and the “ability to reduce the vapor pressure of molecular iodine in an aqueous environment (conclusion)” value was “most effective”. Besides, the “effect on vapor pressure of molecular iodine in an aqueous environment” value in data set [2] was “reduces the vapor pressure of molecular iodine”.

Consider `CC(O)CO` (stereo not drawn) [propylene glycol], for which the viscosity in data set [3] (25° C.) is given as 59 cP; in data set [3] (33° C.), 95 cP. Further, in data set [3] (viscosity versus shear), the flow behaviour result is listed as “behaves like a Newtonian fluid”.

As for `OC[C@H]1O[C@@H]2O[C@H]3[C@H](O)[C@@H](O)[C@@H](O[C@H]4[C@H](O)[C@@H](O)[C@@H](O[C@H]5[C@H](O)[C@@H](O)[C@@H](O[C@H]6[C@H](O)[C@@H](O)[C@@H](O[C@H]7[C@H](O)[C@@H](O)[C@@H](O[C@H]8[C@H](O)[C@@H](O)[C@@H](O[C@H]1[C@H](O)[C@H]2O)O[C@@H]8CO)O[C@@H]7CO)O[C@@H]6CO)O[C@@H]5CO)O[C@@H]4CO)O[C@@H]3CO` [β-cyclodextrin], in data set [2], the “color of iodine indicator paper / iodine vapor at 6 hours” value is on record as “clearly detected” and the “color of iodine indicator paper / iodine vapor at 24 hours” value was “deeply stained”.

Consider `OC[C@H]1O[C@@H]2O[C@H]3[C@H](O)[C@@H](O)[C@@H](O[C@H]4[C@H](O)[C@@H](O)[C@@H](O[C@H]5[C@H](O)[C@@H](O)[C@@H](O[C@H]6[C@H](O)[C@@H](O)[C@@H](O[C@H]7[C@H](O)[C@@H](O)[C@@H](O[C@H]8[C@H](O)[C@@H](O)[C@@H](O[C@H]9[C@H](O)[C@@H](O)[C@@H](O[C@H]1[C@H](O)[C@H]2O)O[C@@H]9CO)O[C@@H]8CO)O[C@@H]7CO)O[C@@H]6CO)O[C@@H]5CO)O[C@@H]4CO)O[C@@H]3CO` [gamma cyclodextrin, γ-cyclodextrin], for which, in data set [2], the “color of iodine indicator paper / iodine vapor at 6 hours” value is “clearly detected” and the “color of iodine indicator paper / iodine vapor at 24 hours” value is “deeply stained”.

`II` [Molecular iodine, molecular iodine]: the “lowest lethal atmospheric concentration” value in data set [4] is given as 80 ppm. The permissible exposure limit in data set [5] (NIOSH, OSHA) is reported as 0.1 ppm. Further, the “concentration with severe eye irritation” value in data set [5] (after 2 minutes) was 1.63 ppm. In data set [5] (iodine vapor, inhalation), the “concentration at which humans can work undisturbed” value is on record as 0.1 ppm, the “concentration at which humans work with difficulty” value was 0.15-0.2 ppm and the “concentration that humans cannot tolerate” value is given as no less than 0.3 ppm. Moreover, in data set [5] (iodine vapor), the “level at which odor is detected” value is “about 0.9 ppm”. Besides, the “maximum iodine that can build up in a closed container” value in data set [6] (25° C., standard atmospheric pressure) was no more than 394 ppm. In addition, the vapor pressure in data set [6] (25° C.) is listed as 0.3 mm. For the same molecule, the vapor pressure in data set [6] (38.7° C.) is on record as 1 mm.
